Test results taken from article PMC8916643, “Molecular physiology of pumiliotoxin sequestration in a poison frog” (PLoS ONE, 2022).

System: gene expression in intestines, liver, and skin
Test: RNA sequencing, differential gene expression after PTX 251D feeding
Type: in vivo, Dendrobates tinctorius
From the text: Lab-reared (non-toxic) Dendrobates tinctorius were housed in terraria with live plants, a water pool, and a shelter. Ten adult females were size-matched, randomly assigned to control or experimental groups (N = 5 per group), and then housed individually. To measure the specific effects of PTX 251D compared to a background toxicity, the control group was fed 0.01% DHQ (Sigma-Aldrich, St. Louis, USA) in a solution of 1% EtOH and the experimental group was fed a solution of 0.01% DHQ and 0.01% PTX 251D (PepTech, Burlington, MA, USA) in a solution of 1% EtOH in water. Each frog was fed 15 μL each day for five days by pipetting the solution directly into the mouth between 10am-12pm. […]
RNA extraction followed the Trizol (Thermo Fisher Scientific, Waltham, MA, USA) protocol outlined in Caty et al. 2019 [16] and according to the manufacturer’s instructions. […] Libraries were quantified with quantitative PCR (NEBnext Library quantification kit, New England Biolabs, Ipswich, USA) and a Agilent Bioanalyzer High Sensitivity DNA chip, both according to manufacturer’s instructions. All libraries were pooled at equimolar amounts and were sequenced on four lanes of an Illumina HiSeq 4000 machine to obtain 150 bp paired-end reads. […]

CCCCC(C)C=C1CN2CCCC2C(C)(O)C1 (centres unmarked) [PTX 251D, pumiliotoxin (PTX 251D)] was tested, and the “expression of CYP2D6-like contig” value (intestines of frogs fed PTX 251D) was “upregulated” and the “CYP3A29 expression log2FC” value (intestines, DHQ+PTX vs DHQ) was 5.72.
